Laboratory results reported in patent US7208520B2, “Crystals of hydroxynorephedrine derivative” (Kissei Pharmaceutical Co., Ltd., priority 2001, dated 2007).

Experiment: Stability test: storage at 60° C., residual percentage by HPLC and changes in appearance
Type: physicochemical
Settings: for Residual percentage: determined by HPLC
Protocol: Stability test was carried out under a condition of storage at 60° C. for crystalline form A obtained in Example 2, crystalline form B obtained in Example 3 and the amorphous form of compound (II) obtained in Reference Example 1. The residual percentage of test substances was determined by HPLC, and the changes in appearance were observed.

[1] = storage at 60° C., 7 days, hydrochloride

Row | Changes in appearance (storage at 60° C.) | Appearance (storage at 60° C., 7 days) | Residual percentage [1] | Appearance (storage period: Initial) | Residual percentage (storage period: Initial) | Residual percentage (storage at 60° C., 7 days) | Compound
1 | no changes in appearance | white | 100 | white | 100 | – | CCOC(=O)COc1cc(C)c(CCN[C@@H](C)[C@H](O)c2ccc(O)cc2)cc1C.Cl [Example 2, Crystalline form A of ethyl (−)-2-[4-[2-[[(1S,2R)-2-hydroxy-2-(4-hydroxyphenyl)-1-methyethyl]amino]ethyl]-2,5-dimethylphenoxy]acetate hydrochloride]
2 | – | tannish | – | Color- | 100 | 40.0 | CCOC(=O)COc1cc(C)c(CCN[C@@H](C)[C@H](O)c2ccc(O)cc2)cc1C [compound 1, Ethyl (−)-2-[4-[2-[[(1S,2R)-2-hydroxy-2-(4-hydroxyphenyl)-1-methyethyl]amino]ethyl]-2,5-dimethylphenoxy]acetate, reference compound]
3 | no changes in appearance | white | 99.9 | white | 100 | – | CCOC(=O)COc1cc(C)c(CCN[C@@H](C)[C@H](O)c2ccc(O)cc2)cc1C.Cl [Example 3, Crystalline form B of ethyl (−)-2-[4-[2-[[(1S,2R)-2-hydroxy-2-(4-hydroxyphenyl)-1-methyethyl]amino]ethyl]-2,5-dimethylphenoxy]acetate hydrochloride]
